Measurements reported in US20220387602A1, “BIFUNCTIONAL DEGRADERS AND THEIR METHODS OF USE” (NOVARTIS AG, priority 2019, published 2022).

Target: T1, EPHA4 (Homo sapiens, UniProt P54764)
T1 construct: EGFP (after a Leu that replaces the STOP codon); expressed in transfected cells; host or cells: HEK293A (Invitrogen R70507), lentiviral transduction
Assay: EPHA4-GFP protein abundance flow cytometry assay in HEK293A
Type: cell-based
Details: for EPHA4 Amax: % protein remaining at the concentration of maximum degradation; for DC50: HEK293A EPHA4-GFP sensor cells, 24 h
Procedure: Degradation of BTK, CSK, ABL2, EPHA4 and YES1 was measured in HEK293A cells (Invitrogen R70507) expressing either BTK-GFP and RFP, CSK-GFP and mCherry, GFP-ABL2 and mCherry, EPHA4-GFP and mCherry, or YES1-GFP and mCherry from a stably integrated bicistronic BTK-GFP-iresRFP, CSK-GFP-CHYSEL-mCherry, GFP-ABL2-CHYSEL-mCherry, EPHA4-GFP-CHYSEL-mCherry, or YES1-GFP-CHYSEL-mCherry construct, respectively. Reduction of the GFP signal measured by flow cytometry served as readout for BTK, CSK, ABL2, EPHA4 and YES1 degradation after degrader treatment.
293A BTK-GFP-Ires-RFP, CSK-GFP-CHYSEL-mCherry, GFP-ABL2-CHYSEL-mCherry, EPHA4-GFP-CHYSEL-mCherry, or YES1-GFP-CHYSEL-mCherry sensor cells were generated by lentiviral vector transduction using the pLenti6-BTK-GFP-Ires-RFP, pLenti6-mCherryCHYSEL-EGFP-ABL2, pLenti6-CSK-GFP-CHYSEL-mCherry, pLenti6-EPHA4-GFP-CHYSEL-mCherry or pLenti6-YES1-GFP-CHYSEL-mCherry sensor construct described before. Lentiviral particles were produced in HEK293FT cells (Invitrogen R70007) by co-transfection of 500 ng pLenti6-BTK-GFP-Ires-RFP or pLenti6-IKZF3-GFP-Ires-RFP, 500 ng delta8.71 and 200 ng pVSVG diluted in 100 μL OptiMEM serum free medium (Invitrogen #11058-021) that was mixed after 5 min preincubation with 3 μL of Lipofectamine2000 (Invitrogen #11668-019) in 97 μL OptiMEM serum free medium. The mix was incubated for another 20 min at RT and then added on 1 mL of a freshly prepared suspension of HEK293FT cells in a well of a 6-well plate (concentration 1.2×10^6 cells/mL). 1 day after transfection, the medium was replaced with 1.5 mL of complete growth medium (DMEM high Glucose+10% FCS+1% L-Glutamine+1% NEAA+1% NaPyr.). 48 h post transfection supernatant containing viral transducing particles was collected and frozen at −80° C.
2 days before transduction with viral particles 1×10^5 HEK293A cells (Invitrogen R70507) were seeded in 2 mL growth medium in a well of a 6-well plate. Infection was performed with 90 μL of collected supernatant containing viral transducing particles in 1 mL medium including 8 µg/mL polybrene. 24 h post infection, stably transfected cells were selected with blasticidin at a concentration of 8 μg/mL referred to as stable HEK293A sensor cells.
Stable HEK293A sensor cells were maintained in complete growth medium (DMEM high Glucose+10% FCS+1% L-Glutamine+1% NEAA+1% NaPyr.) with passaging performed twice per week. […] GFP and RFP are read in the channels called FITC and PE, respectively.
Concentration response curves plotting relative reduction of the GFP signal (measured by flow cytometry) versus 10 compound concentrations (starting concentration 10 μM, 3 fold dilution steps) of the compounds allowed generation of DC50 values.

T1 sequence (P54764 20-986, species assumed): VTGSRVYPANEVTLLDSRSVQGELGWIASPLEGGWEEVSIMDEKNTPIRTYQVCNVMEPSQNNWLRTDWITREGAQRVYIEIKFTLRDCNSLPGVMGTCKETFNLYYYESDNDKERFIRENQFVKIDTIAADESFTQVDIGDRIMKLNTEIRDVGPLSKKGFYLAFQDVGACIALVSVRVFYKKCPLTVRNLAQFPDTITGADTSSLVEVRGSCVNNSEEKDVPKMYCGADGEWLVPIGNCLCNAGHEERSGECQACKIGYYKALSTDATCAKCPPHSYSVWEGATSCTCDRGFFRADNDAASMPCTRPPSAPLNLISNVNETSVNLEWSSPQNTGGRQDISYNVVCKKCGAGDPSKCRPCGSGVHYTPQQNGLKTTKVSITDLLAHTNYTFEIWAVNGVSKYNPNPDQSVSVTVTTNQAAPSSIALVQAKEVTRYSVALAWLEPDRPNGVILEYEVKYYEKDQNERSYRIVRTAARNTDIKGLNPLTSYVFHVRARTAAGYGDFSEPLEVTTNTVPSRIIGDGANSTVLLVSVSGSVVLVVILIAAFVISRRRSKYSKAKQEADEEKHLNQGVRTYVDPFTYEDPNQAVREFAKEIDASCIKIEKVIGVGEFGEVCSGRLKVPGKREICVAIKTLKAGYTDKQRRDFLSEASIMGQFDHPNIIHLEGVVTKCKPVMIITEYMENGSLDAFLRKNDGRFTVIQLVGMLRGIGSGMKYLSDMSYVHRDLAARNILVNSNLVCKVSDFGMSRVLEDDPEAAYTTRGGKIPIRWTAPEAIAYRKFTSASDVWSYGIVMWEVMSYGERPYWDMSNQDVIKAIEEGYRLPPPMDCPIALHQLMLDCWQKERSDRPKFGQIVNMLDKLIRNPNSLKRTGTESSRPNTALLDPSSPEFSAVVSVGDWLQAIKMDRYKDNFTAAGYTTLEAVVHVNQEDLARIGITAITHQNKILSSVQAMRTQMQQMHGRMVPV

Row | SMILES | EPHA4 Amax [%] | DC50 [nM]
1 | COc1ccc(C(=O)N2CCC3(CCN(C(=O)CCCCCCCN4CCN(c5cc(Nc6ncc(C(=O)Nc7c(C)cccc7Cl)s6)nc(C)n5)CC4)CC3)CC2)cc1N1CCC(=O)NC1=O [compound 06, N-(2-chloro-6-methylphenyl)-2-((6-(4-(8-(9-(3-(2,4-dioxotetrahydropyrimidin-1(2H)-yl)-4-methoxybenzoyl)-3,9-diazaspiro[5.5]undecan-3-yl)-8-oxooctyl)piperazin-1-yl)-2-methylpyrimidin-4-yl)amino)thiazole-5-carboxamide] | 9 | 4
2 | COc1ccc(C(=O)N2CCC3(CCN(C(=O)CN4CCN(c5cc(Nc6ncc(C(=O)Nc7c(C)cccc7Cl)s6)nc(C)n5)CC4)CC3)CC2)cc1N1CCC(=O)NC1=O [compound 07, N-(2-chloro-6-methylphenyl)-2-((6-(4-(2-(9-(3-(2,4-dioxotetrahydropyrimidin-1(2H)-yl)-4-methoxybenzoyl)-3,9-diazaspiro[5.5]undecan-3-yl)-2-oxoethyl)piperazin-1-yl)-2-methylpyrimidin-4-yl)amino)thiazole-5-carboxamide] | 9 | 83
